Assay results published in PubChem BioAssay AID1259411 (Chemical Carcinogenesis Research Information System (CCRIS), 2018).
The source made the active and inactive calls. No rule for the calls is given here.

System: rodent carcinogenicity bioassays, tumor incidence
Assay: CCRIS carcinogenicity studies
Details: Dose: 0, Dose: 0
Method in brief: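 Archive of carcinogenicity, mutagenicity, tumor promotion and tumor inhibition results drawn from journals, NCI reports and other sources, expert-reviewed; covers 1985-2011 and is no longer updated.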

## C=COC(C)=O
Species: MOUSE, Strain/Sex: CRL:CD-1(ICR)BR/FEMALE, Route: INHALATION, 50, 200, 600 PPM 6 HR/D 5 D/WK FOR 104 WK (STUDY DURATION: 104 WK), 50, 200, 600 PPM 6 HR/D 5 D/WK FOR 104 WK (STUDY DURATION: 104 WK)
  carcinogen call: inactive; negative
Species: MOUSE, Strain/Sex: CRL:CD-1(ICR)BR/MALE, Route: INHALATION, 50, 200, 600 PPM 6 HR/D 5 D/WK FOR 104 WK (STUDY DURATION: 104 WK), 50, 200, 600 PPM 6 HR/D 5 D/WK FOR 104 WK (STUDY DURATION: 104 WK)
  carcinogen call: inactive; negative
Species: MOUSE, Strain/Sex: SWISS/FEMALE, Route: ORAL, 1000, 5000 PPM IN DRINKING WATER ADMINISTERED FOR DURATION OF STUDY TO OFFSPRING OF MOTHERS EXPOSED TO THE SAME DOSES, 1000, 5000 PPM IN DRINKING WATER ADMINISTERED FOR DURATION OF STUDY TO OFFSPRING OF MOTHERS EXPOSED TO THE SAME DOSES, Tumor Site: Type of Lesion: ZYMBAL GLAND: CARCINOMA, ORAL CAVITY: SQUAMOUS CELL CARCINOMA, TONGUE: SQUAMOUS CELL CARCINOMA, ESOPHAGUS: SQUAMOUS CELL, Tumor Site: Type of Lesion: ZYMBAL GLAND: CARCINOMA, ORAL CAVITY: SQUAMOUS CELL CARCINOMA, TONGUE: SQUAMOUS CELL CARCINOMA, ESOPHAGUS: SQUAMOUS CELL
  carcinogen call: active; positive
Species: MOUSE, Strain/Sex: SWISS/FEMALE, Route: ORAL, 1000, 5000 PPM IN DRINKING WATER FOR DURATION OF STUDY (STUDY DURATION:LIFE SPAN), 1000, 5000 PPM IN DRINKING WATER FOR DURATION OF STUDY (STUDY DURATION:LIFE SPAN), Tumor Site: Type of Lesion: TONGUE: SQUAMOUS CELL CARCINOMA, ESOPHAGUS: SQUAMOUS CELL CARCINOMA, LUNG: ADENOMA OR ADENOCARCINOMA, UTERUS: TUMOR, Tumor Site: Type of Lesion: TONGUE: SQUAMOUS CELL CARCINOMA, ESOPHAGUS: SQUAMOUS CELL CARCINOMA, LUNG: ADENOMA OR ADENOCARCINOMA, UTERUS: TUMOR
  carcinogen call: active; positive
Species: MOUSE, Strain/Sex: SWISS/MALE, Route: ORAL, 1000, 5000 PPM IN DRINKING WATER FOR DURATION OF STUDY (STUDY DURATION: LIFE SPAN), 1000, 5000 PPM IN DRINKING WATER FOR DURATION OF STUDY (STUDY DURATION: LIFE SPAN)
  carcinogen call: inactive; negative
Species: RAT, Strain/Sex: CRL:CD(SD)BR/FEMALE, Route: INHALATION, 50, 200, 600 PPM 6 HR/D 5 D/WK FOR 104 WK (STUDY DURATION: 104 WK), 50, 200, 600 PPM 6 HR/D 5 D/WK FOR 104 WK (STUDY DURATION: 104 WK)
  carcinogen call: inactive; negative
Species: RAT, Strain/Sex: CRL:CD(SD)BR/FEMALE, Route: ORAL, 200, 1000, 5000 PPM IN DRINKING WATER FOR 104 WK ADMINISTERED TO OFFSPRING OF RATS ADMINISTERED THE SAME DOSES BEGINN, 200, 1000, 5000 PPM IN DRINKING WATER FOR 104 WK ADMINISTERED TO OFFSPRING OF RATS ADMINISTERED THE SAME DOSES BEGINN
  carcinogen call: inactive; negative
Species: RAT, Strain/Sex: CRL:CD(SD)BR/MALE, Route: INHALATION, 50, 200, 600 PPM 6 HR/D 5 D/WK FOR 104 WK (STUDY DURATION: 104 WK), 50, 200, 600 PPM 6 HR/D 5 D/WK FOR 104 WK (STUDY DURATION: 104 WK), Tumor Site: Type of Lesion: NASAL CAVITY: TUMOR
  carcinogen call: active; positive
Species: RAT, Strain/Sex: CRL:CD(SD)BR/MALE, Route: ORAL, 200, 1000, 5000 PPM IN DRINKING WATER FOR 104 WK ADMINISTERED TO OFFSPRING OF RATS ADMINISTERED THE SAME DOSES BEGINN, 200, 1000, 5000 PPM IN DRINKING WATER FOR 104 WK ADMINISTERED TO OFFSPRING OF RATS ADMINISTERED THE SAME DOSES BEGINN
  carcinogen call: inactive; negative
Species: RAT, Strain/Sex: F344/FEMALE, Route: ORAL, 1000, 2500 MG/L IN DRINKING WATER 5 D/WK FOR 100 WK (STUDY DURATION: 130 WK), 1000, 2500 MG/L IN DRINKING WATER 5 D/WK FOR 100 WK (STUDY DURATION: 130 WK), Tumor Site: Type of Lesion: UTERUS: CARCINOMA, THYROID: C-CELL ADENOMA, LIVER: NEOPLASTIC NODULE, Tumor Site: Type of Lesion: UTERUS: CARCINOMA, THYROID: C-CELL ADENOMA, LIVER: NEOPLASTIC NODULE
  carcinogen call: active; positive
Species: RAT, Strain/Sex: F344/MALE, Route: ORAL, 1000, 2500 MG/L IN DRINKING WATER 5 D/WK FOR 100 WK (STUDY DURATION: 130 WK), 1000, 2500 MG/L IN DRINKING WATER 5 D/WK FOR 100 WK (STUDY DURATION: 130 WK)
  carcinogen call: inactive; negative
Species: SWISS/MALE, Strain/Sex: ORAL, Route: ORAL, 1000, 5000 PPM IN DRINKING WATER ADMINISTERED FOR DURATION OF STUDY TO OFFSPRING OF MOTHERS EXPOSED TO THE SAME DOSES, 1000, 5000 PPM IN DRINKING WATER ADMINISTERED FOR DURATION OF STUDY TO OFFSPRING OF MOTHERS EXPOSED TO THE SAME DOSES, Tumor Site: Type of Lesion: ZYMBAL GLAND: CARCINOMA, ORAL CAVITY: SQUAMOUS CELL CARCINOMA, TONGUE: SQUAMOUS CELL CARCINOMA, ESOPHAGUS: SQUAMOUS CELL, Tumor Site: Type of Lesion: ZYMBAL GLAND: CARCINOMA, ORAL CAVITY: SQUAMOUS CELL CARCINOMA, TONGUE: SQUAMOUS CELL CARCINOMA, ESOPHAGUS: SQUAMOUS CELL
  carcinogen call: active; positive

## CC(C)CCC[C@@H](C)[C@H]1CC[C@H]2[C@@H]3C[C@@H]4O[C@@]45C[C@@H](O)CC[C@]5(C)[C@H]3CC[C@]12C
Species: RAT, Strain/Sex: STRAIN-CD/FEMALE, Route: INJECTION, 12.3 UMOL (TOTAL DOSE) 1/6 INJECTED UNDER EACH OF 3 THORACIC AND 3 INGUINAL NIPPLES ONCE (STUDY DURATION: 44 WK)
  carcinogen call: inactive; negative

## N#CCNC(=O)c1cnccc1C(F)(F)F
Species: Mouse, Strain/Sex: Crl:CD-1(ICR)BR VAF/Plus / Female (60/Group), Route: Oral, 250, 750, 2250 ppm (0; 38; 112; 334 mg/kg/day) in diet for 18 mo, study duration 18 mo, 250, 750, 2250 ppm (0; 38; 112; 334 mg/kg/day) in diet for 18 mo, study duration 18 mo, Tumor Site: Type of Lesion: Lung: alveolar/bronchiolar adenomas and carcinomas
  carcinogen call: active; positive
Species: Mouse, Strain/Sex: Crl:CD-1(ICR)BR VAF/Plus / Male (60/Group), Route: Oral, 250, 750, 2250 ppm (0; 29; 88; 261 mg/kg/day) in diet for 18 mo, study duration 18 mo, 250, 750, 2250 ppm (0; 29; 88; 261 mg/kg/day) in diet for 18 mo, study duration 18 mo, Tumor Site: Type of Lesion: Lung: alveolar/bronchiolar adenomas and carcinomas
  carcinogen call: active; positive
Species: Rat, Strain/Sex: Wistar (Jcl:Wistar)/Female (52/Group), Route: Oral, 200, 1000, 5000 ppm (0; 8.92; 44.1; 219 mg/kg/day) in diet for 2 yr, study duration 2 yr, 200, 1000, 5000 ppm (0; 8.92; 44.1; 219 mg/kg/day) in diet for 2 yr, study duration 2 yr
  carcinogen call: inactive; negative
Species: Rat, Strain/Sex: Wistar (Jcl:Wistar)/Male (52/Group), Route: Oral, 50, 100, 200, 1000 ppm (0; 1.84; 3.68; 7.32; 36.5 mg/kg/day) in diet for 2 yr, study duration 2 yr, 50, 100, 200, 1000 ppm (0; 1.84; 3.68; 7.32; 36.5 mg/kg/day) in diet for 2 yr, study duration 2 yr
  carcinogen call: inactive; negative

## Cc1ccc2cc3c(ccc4ccccc43)c3c2c1CC3OS(=O)(=O)O (stereo not given)
Species: RAT, Strain/Sex: SPRAGUE-DAWLEY/FEMALE, Route: SUBCUTANEOUS, 0.2 UMOL IN 0.1 ML SESAME OIL: DMSO (9:1) 3/WK FOR 20 DOSES (STUDY DURATION: 52 WK), Tumor Site: Type of Lesion: INJECTION SITE: SARCOMA
  carcinogen call: active; positive

## COc1ccc([C@H]2O[C@H]2C)cc1
Species: MOUSE, Strain/Sex: B6C3F1/MALE, Route: INTRAPERITONEAL, 0.25, 0.5 UMOL/G BW ONCE (STUDY DURATION: 10-11 MONTHS), 0.25, 0.5 UMOL/G BW ONCE (STUDY DURATION: 10-11 MONTHS), Tumor Site: Type of Lesion: LIVER: HEPATOMA
  carcinogen call: active; positive
Species: MOUSE, Strain/Sex: CD-1/FEMALE, Route: DERMAL, 5 UMOL 1X/WK FOR 3 WK BEGINNING 24 HR POST FIRST TPA DOSE (2.5 UG IN 0.1 ML ACETONE), FOLLOWED BY 2.5 UG TPA IN 0.1 M, Tumor Site: Type of Lesion: SKIN: PAPILLOMA
  carcinogen call: active; positive
